Laboratory results reported in US20090186915A1, “Compositions and methods for treatment of glioblastoma, gliosarcoma, NSCLC, and head and neck cancer” (Unibioscreen S. A., priority 2006, published 2009).

Legend:
DU-145 = assay: Senescence-associated β-galactosidase staining, DU-145; format: cell-based, human; settings: 10 μM, 72 hours
Description: Features typical of senescence have been induced by the compound of example 2 in human DU-145 prostate cancer cells. A senescent cell is known to typically show morphological changes, such as a flattened cytoplasm and increased granularity. The induction of senescence-associated β-galactosidase activity is a specific event occurring in cells undergoing senescence, a feature that was observed once more in the current study (according to the protocol found in Dimri et al., A biomarker that identifies senescent human cells in culture and in aging skin in vivo, Proc Natl Acad Sci USA. (1995) 92(20):9363-7), as evidenced in FIG. 4. Moderate doses (nM range) of doxorubicin (ADR) are known to induce senescence in wild-type human cancer cells. We therefore used doxorubicin as a positive control in our experiment.
After the indicated treatments, cells were washed in PBS, fixed for 3 to 5 minutes (at room temperature) in 2% formaldehyde/0.2% glutaraldehyde, washed and incubated at 37° C. […] 1995; 92:9363-9367.], after fixing and staining with X-Gal, the number of cells positive for the SA-β-Gal activity (intense blue staining) was then counted independently by two different individuals (on 400 cells/plate). […]
Human PC-3 and DU-145 prostate cancer cells cultured in 0 or 10 μM UNBS5162 or 20 nM Adriamycin for 72 hours were evaluated by SA-β-Gal staining. […]

BFU-E = assay: HALO hematotoxicity assay, mouse BFU-E; format: cell-based; settings: 5 days culture, iATP
Protocol: Investigation of the hematotoxic potential of UNBS5162 was undertaken by HemoGenix (Colorado Springs, Colo.). The effects of UNBS5162 on stem and progenitor cell populations from murine and human bone marrow were assessed using HALO (Hematopoietic/Hematotoxicity Assay through Luminescence Output) technology. Stem and hematopoietic progenitor cell populations were isolated from mouse and human bone marrow samples, plated at a concentration of 1.0×10^4 cells/well and cultured for 5 and 7 days, respectively, in the presence of growth factors and increasing concentrations of UNBS5162 ranging from 0.5 nM to 50 μM. The proliferative or growth potential of cell populations was determined from intracellular ATP (iATP) concentrations and a luciferin/luciferase bioluminescence signal detection system. All samples were assayed in eight replicates. The results are presented as estimated inhibitory concentration (IC) values.

[1] = system: CXCL1, CXCL2, CXCL3, CXCL5, CXCL6, and CXCL8 chemokines; assay: CXCL chemokine expression (microarray and ELISA), PC-3; format: cell-based, human; settings: 1 μM five times a week
Protocol: Two different Quantikine ELISA kits (R&D Systems, Abingdon, UK) for the quantification of human CXCL1 and CXCL8 (IL-8) were used in this study in accordance with the manufacturer's instructions. Cell culture supernatants were collected after different treatments and periods, with multiple aliquots taken and stored at −20° C. until analysis.

PC-3 [2] = assay: Apoptosis by Annexin V flow cytometry, PC-3; format: cell-based, human
Protocol: We used flow cytometry (according to the protocol found in Mijatovic et al. Neoplasia 2006) to determine the percentages of PC-3 and DU-145 positive cells for both Annexin V and propidium iodide and we observed that a maximum of 10% only of PC-3 or DU-145 cells underwent apoptotic processes following a treatment with 10 μM of the compound produced according to example 2 or example 7.
The determination of the percentage of cells undergoing apoptosis was performed using an Annexin V-FITC Apoptosis Detection Kit (Sigma) following the manufacturer's instructions. Each sample was evaluated in triplicate.

PC-3 [3] = assay: Autophagy: acidic vesicular organelles, acridine orange flow cytometry, PC-3; format: cell-based, human; settings: red fluorescence, up to 10 μM
Protocol: The cytoplasm and nucleus fluoresce green in acridine orange-stained cells, and the acidic compartments fluoresce red. The intensity of the red fluorescence is proportional to the degree of acidity and the volume of acidic vesicular organelles, including autophagic vacuoles. To quantify the development of acidic vesicular organelles, the cells were stained with acridine orange for 15 minutes and removed from the plate with trypsinization. Cells were then analyzed by flow cytometry. Each sample was evaluated in triplicate.

CN(C)CCN1C(=O)c2cccc3cc(NC(N)=O)cc(c23)C1=O [UNBS5162, N-{2-[2-(dimethylamino)ethyl]-1,3-dioxo-2,3-dihydro-1H-benzo[de]isoquinolin-5-yl}urea]
senescence-associated β-galactosidase expression (DU-145): induced marked expression of SA-β-Gal
senescence-associated β-galactosidase expression (DU-145; listed as example 2): induced a similar percentage of senescence-associated β-galactosidase positive staining as 20 nM doxorubicin
IC50 (BFU-E; 120 h): 5.53 µM
IC90 (BFU-E; 120 h): 9.11 µM
IC75 (BFU-E): 7.03 µM
expression of proangiogenic CXCL chemokines (mRNA and protein) [1]: dramatically decreased
cells undergoing apoptotic processes (Annexin V and propidium iodide positive) (PC-3 [2]; 10 μM): ≤ 10%
induction of real (early) apoptosis (PC-3 [2]; flow cytometry): does not induce real (early) apoptosis
pro-autophagic effects (acidic vesicular organelles) (PC-3 [3]): had a proautophagic effect
pro-autophagic effects (acidic vesicular organelles) (PC-3 [3]; listed as example 2): pro-autophagic effects
